From patent US20220305019A1, “PARAXANTHINE-BASED COMPOSITIONS FOR PROMOTING WEIGHT LOSS” (Ingenious Ingredients, LP, priority 2021, published 2022)

Assay: Resting energy expenditure after oral ingestion of PX, crossover, two participants
Type: in vivo, human
Experimental: Upon determination of baseline resting energy expenditure, two participants were assigned in a randomized, double-blind, placebo-controlled, crossover fashion to ingest a non-energetic placebo (maltodextrin), 100 mg paraxanthine (PX), 200 mg PX or 300 mg PX. All supplements were orally ingested with 8 fluid ounces of cold tap water. The order of administration for all interventions was randomized using a random allocation software to ensure randomization and to avoid order effects. After ingestion, participants completed all assessments in an identical fashion 30, 60, 90, 120, and 180 minutes after ingestion of their assigned supplement. All study visits took place between 0600-1000 hours. At least 72 hours of rest took place between each condition.

## Cn1c(=O)[nH]c2ncn(C)c2c1=O [PX, paraxanthine]
100 mg PX, 30 min, person one
  Resting Energy Expenditure: 1,943 kcal/day
100 mg PX, 30 min, person two
  Resting Energy Expenditure: 1,690 kcal/day
100 mg PX, 60 min, person one
  Resting Energy Expenditure: 1,862 kcal/day
100 mg PX, 60 min, person two
  Resting Energy Expenditure: 1,809 kcal/day
100 mg PX, 90 min, person one
  Resting Energy Expenditure: 1,921 kcal/day
100 mg PX, 90 min, person two
  Resting Energy Expenditure: 1,899 kcal/day
100 mg PX, 120 min, person one
  Resting Energy Expenditure: 1,990 kcal/day
100 mg PX, 120 min, person two
  Resting Energy Expenditure: 1,787 kcal/day
100 mg PX, 180 min, person one
  Resting Energy Expenditure: 2,129 kcal/day
100 mg PX, 180 min, person two
  Resting Energy Expenditure: 1,796 kcal/day
100 mg PX, Average of both
  Resting Energy Expenditure MEAN: 1,883 kcal/day
100 mg PX, person one
  Resting Energy Expenditure MEAN: 1,969 kcal/day
100 mg PX, person two
  Resting Energy Expenditure MEAN: 1,796 kcal/day
200 mg PX, 30 min, person one
  Resting Energy Expenditure: 2,007 kcal/day
200 mg PX, 30 min, person two
  Resting Energy Expenditure: 1,703 kcal/day
200 mg PX, 60 min, person one
  Resting Energy Expenditure: 1,702 kcal/day
200 mg PX, 60 min, person two
  Resting Energy Expenditure: 1,782 kcal/day
200 mg PX, 90 min, person one
  Resting Energy Expenditure: 2,048 kcal/day
200 mg PX, 90 min, person two
  Resting Energy Expenditure: 1,864 kcal/day
200 mg PX, 120 min, person one
  Resting Energy Expenditure: 2,221 kcal/day
200 mg PX, 120 min, person two
  Resting Energy Expenditure: 1,872 kcal/day
200 mg PX, 180 min, person one
  Resting Energy Expenditure: 2,067 kcal/day
200 mg PX, 180 min, person two
  Resting Energy Expenditure: 1,853 kcal/day
200 mg PX, Average of both
  Resting Energy Expenditure MEAN: 1,912 kcal/day
200 mg PX, person one
  Resting Energy Expenditure MEAN: 2,009 kcal/day
200 mg PX, person two
  Resting Energy Expenditure MEAN: 1,815 kcal/day
300 mg PX, 30 min, person one
  Resting Energy Expenditure: 2,267 kcal/day
300 mg PX, 30 min, person two
  Resting Energy Expenditure: 1,840 kcal/day
300 mg PX, 60 min, person one
  Resting Energy Expenditure: 2,354 kcal/day
300 mg PX, 60 min, person two
  Resting Energy Expenditure: 1,749 kcal/day
300 mg PX, 90 min, person one
  Resting Energy Expenditure: 2,312 kcal/day
300 mg PX, 90 min, person two
  Resting Energy Expenditure: 1,769 kcal/day
300 mg PX, 120 min, person one
  Resting Energy Expenditure: 2,436 kcal/day
300 mg PX, 120 min, person two
  Resting Energy Expenditure: 1,831 kcal/day
300 mg PX, 180 min, person one
  Resting Energy Expenditure: 2,402 kcal/day
300 mg PX, 180 min, person two
  Resting Energy Expenditure: 1,913 kcal/day
300 mg PX, Average of both
  Resting Energy Expenditure MEAN: 2,098 kcal/day
300 mg PX, person one
  Resting Energy Expenditure MEAN: 2,374 kcal/day
300 mg PX, person two
  Resting Energy Expenditure MEAN: 1,822 kcal/day
